From ChEMBL document CHEMBL1141223, “Potent Dmt-Tic pharmacophoric delta- and mu-opioid receptor antagonists” (J Med Chem, 2005)

Legend:
[1] = target: Mu-type opioid receptor (Cavia porcellus) (UniProt P97266); test: Maximal inhibition of muscle contraction in guinea pig ileum at 10000 nM; type: functional, tissue-based; set-up: scale not given: the % may be the effect or the level left
[2] = target: Opioid receptors; mu & delta (Rattus norvegicus) (UniProt P33533+P33535); test: Selectivity ratio of rat mu opioid receptor over rat delta opioid receptor; type: protein assay
Sequence of Opioid receptors; mu & delta (Rattus norvegicus) (P33533 whole entry, looked up): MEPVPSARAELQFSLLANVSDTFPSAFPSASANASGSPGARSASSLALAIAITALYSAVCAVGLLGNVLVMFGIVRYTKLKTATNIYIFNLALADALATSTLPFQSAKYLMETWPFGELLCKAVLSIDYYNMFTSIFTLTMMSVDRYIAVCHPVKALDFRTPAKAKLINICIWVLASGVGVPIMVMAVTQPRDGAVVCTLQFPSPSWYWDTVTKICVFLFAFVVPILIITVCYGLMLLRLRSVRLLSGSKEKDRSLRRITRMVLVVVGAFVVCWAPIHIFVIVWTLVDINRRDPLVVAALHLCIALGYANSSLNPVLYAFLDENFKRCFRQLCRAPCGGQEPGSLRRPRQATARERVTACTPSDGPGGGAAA
Sequence of Opioid receptors; mu & delta (Rattus norvegicus) (P33535 whole entry, looked up): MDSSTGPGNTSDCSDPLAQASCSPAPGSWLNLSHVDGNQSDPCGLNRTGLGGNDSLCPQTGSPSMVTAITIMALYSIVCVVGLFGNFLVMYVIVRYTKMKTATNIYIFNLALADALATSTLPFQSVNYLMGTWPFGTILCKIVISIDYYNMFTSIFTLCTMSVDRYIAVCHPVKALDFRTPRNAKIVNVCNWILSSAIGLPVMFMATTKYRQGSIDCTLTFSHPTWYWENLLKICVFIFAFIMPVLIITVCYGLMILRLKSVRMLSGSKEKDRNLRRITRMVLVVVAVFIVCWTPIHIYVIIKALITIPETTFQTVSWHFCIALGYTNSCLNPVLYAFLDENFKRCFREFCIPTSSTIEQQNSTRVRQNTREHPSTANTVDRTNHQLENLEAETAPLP

[3] = target: T1, Delta-type opioid receptor (Mus musculus, UniProt P32300); test: Displacement of deltorphin-II from delta opioid receptor in mouse vas deferens; details: read-out: pA2 (converted)
T1 sequence (P32300 whole entry): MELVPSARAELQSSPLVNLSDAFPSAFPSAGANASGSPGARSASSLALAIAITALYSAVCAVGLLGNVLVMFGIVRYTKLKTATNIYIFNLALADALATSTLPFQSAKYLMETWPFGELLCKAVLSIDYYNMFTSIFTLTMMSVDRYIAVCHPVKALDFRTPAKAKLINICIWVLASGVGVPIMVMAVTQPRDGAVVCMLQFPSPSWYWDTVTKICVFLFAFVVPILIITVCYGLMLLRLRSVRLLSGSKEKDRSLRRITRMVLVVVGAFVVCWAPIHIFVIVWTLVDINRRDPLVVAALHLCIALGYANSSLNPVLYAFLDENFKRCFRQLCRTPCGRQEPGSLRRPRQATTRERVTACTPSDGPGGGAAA

[4] = target: Delta-type opioid receptor (Rattus norvegicus, UniProt P33533); test: Displacement of [3H]deltorphin-II from delta opioid receptor in rat brain synaptosomal membranes; type: cell membranes, Sprague-Dawley, Membrane
Sequence of Delta-type opioid receptor (Rattus norvegicus, UniProt P33533) (P33533 whole entry): as the sequence (P33533 whole entry, looked up) above

[5] = target: Mu-type opioid receptor (Rattus norvegicus, UniProt P33535); test: Displacement of [3H]DAMGO from mu opioid receptor expressed in rat brain synaptosomal membranes; type: cell membranes, Sprague-Dawley, Membrane
Sequence of Mu-type opioid receptor (Rattus norvegicus, UniProt P33535) (P33535 whole entry): as the sequence (P33535 whole entry, looked up) above

[6] = target: Delta-type opioid receptor (Mus musculus) (UniProt P32300); test: Maximal inhibition of muscle contraction in mouse vas deferens at 10000 nM; type: functional, tissue-based; set-up: scale not given: the % may be the effect or the level left; details: Muscle tissue
Sequence of Delta-type opioid receptor (Mus musculus) (P32300 whole entry): as the sequence (P32300 whole entry) above

[7] = target: T2, Mu-type opioid receptor (Cavia porcellus, UniProt P97266); test: Displacement of endomorphin-2 from mu opioid receptor in guinea pig ileum; type: tissue-based, Hartley; details: read-out: pA2 (converted)
T2 sequence (P97266 whole entry): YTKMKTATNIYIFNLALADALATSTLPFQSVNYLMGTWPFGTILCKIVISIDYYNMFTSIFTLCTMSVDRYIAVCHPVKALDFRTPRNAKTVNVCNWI

[8] = target: T1, Delta-type opioid receptor; test: Agonistic activity at delta opioid receptor in mouse vas deferens; type: functional, tissue-based
[9] = target: T2, Mu-type opioid receptor; test: Agonistic activity at mu opioid receptor in myenteric plexus longitudinal muscle of guinea pig ileum; type: functional, tissue-based, Hartley

Sequence of Mu-type opioid receptor (Cavia porcellus) (P97266 whole entry): as above

Structure (SMILES): Cc1cc(O)cc(C)c1C[C@@H](C(=O)N1Cc2ccccc2CC1C(=O)NCCCc1nc(O)c(CCCNC(=O)C2Cc3ccccc3CN2C(=O)[C@H](Cc2c(C)cc(O)cc2C)N(C)C)nc1C)N(C)C (stereo partly specified)
- Activity [1]: < 1%
- Ratio Ki [2]: 6
- Kb [3]: 0.038 nM
- Ki [4]: 0.287 nM
- Ki [5]: 1.68 nM
- Activity [6]: < 1%
- Kb [7]: 19.5 nM
- IC50 [8]: > 10000 nM
- IC50 [9]: > 10000 nM

Structure (SMILES): Cc1cc(O)cc(C)c1C[C@H](N)C(=O)N1Cc2ccccc2CC1C(=O)NCCc1nc(O)c(CCNC(=O)C2Cc3ccccc3CN2C(=O)[C@@H](N)Cc2c(C)cc(O)cc2C)nc1C (stereo partly specified)
- Activity [1]: < 27%
- Ratio Ki [2]: 30
- Kb [3]: 0.0186 nM
- Ki [4]: 0.095 nM
- Ki [5]: 2.83 nM
- Activity [6]: < 1%
- Kb [7]: 166 nM
- IC50 [8]: > 10000 nM
- IC50 [9]: > 10000 nM

Structure (SMILES): Cc1cc(O)cc(C)c1C[C@H](N)C(=O)N1Cc2ccccc2CC1C(=O)NCCCCCCCCCCNC(=O)C1Cc2ccccc2CN1C(=O)[C@@H](N)Cc1c(C)cc(O)cc1C (stereo partly specified)
- Ratio Ki [2]: 3
- Kb [3]: 0.0107 nM
- Ki [4]: 1.53 nM
- Ki [5]: 4.86 nM
- Activity [6]: < 28%
- IC50 [8]: > 10000 nM
- IC50 [9]: 5420 nM

Structure (SMILES): Cc1cc(O)cc(C)c1C[C@@H](C(=O)N1Cc2ccccc2CC1C(=O)NCCCCCCNC(=O)C1Cc2ccccc2CN1C(=O)[C@H](Cc1c(C)cc(O)cc1C)N(C)C)N(C)C (stereo partly specified)
- Activity [1]: < 1%
- Ratio Ki [2]: 37
- Kb [3]: 0.00525 nM
- Ki [4]: 0.06 nM
- Ki [5]: 2.21 nM
- Activity [6]: < 1%
- Kb [7]: 4.57 nM
- IC50 [8]: > 10000 nM
- IC50 [9]: > 10000 nM

Structure (SMILES): Cc1cc(O)cc(C)c1C[C@H](N)C(=O)N1Cc2ccccc2CC1C(=O)NCCCCc1nc(O)c(CCCCNC(=O)C2Cc3ccccc3CN2C(=O)[C@@H](N)Cc2c(C)cc(O)cc2C)nc1C (stereo partly specified)
- Activity [1]: < 34%
- Ratio Ki [2]: 5
- Kb [3]: 0.00871 nM
- Ki [4]: 0.323 nM
- Ki [5]: 1.74 nM
- Activity [6]: < 1%
- IC50 [8]: > 10000 nM
- IC50 [9]: > 10000 nM

Structure (SMILES): Cc1cc(O)cc(C)c1C[C@H](N)C(=O)N1Cc2ccccc2CC1C(=O)NCCCCc1nc(C)c(CCCNC(=O)C2Cc3ccccc3CN2C(=O)[C@@H](N)Cc2c(C)cc(O)cc2C)nc1O (stereo partly specified)
- Activity [1]: < 9%
- Ratio Ki [2]: 25
- Kb [3]: 0.0339 nM
- Ki [4]: 0.092 nM
- Ki [5]: 2.28 nM
- Activity [6]: 22%
- Kb [7]: 112 nM
- IC50 [8]: > 10000 nM
- IC50 [9]: > 10000 nM

Structure (SMILES): Cc1cc(O)cc(C)c1C[C@H](N)C(=O)N1Cc2ccccc2CC1C(=O)NCCCCc1nc(O)c(CCCNC(=O)C2Cc3ccccc3CN2C(=O)[C@@H](N)Cc2c(C)cc(O)cc2C)nc1C (stereo partly specified)
- Activity [1]: < 1%
- Ratio Ki [2]: 10
- Activity [6]: < 10%

Structure (SMILES): Cc1cc(O)cc(C)c1C[C@H](N)C(=O)N1Cc2ccccc2CC1C(=O)NCCCCNC(=O)C1Cc2ccccc2CN1C(=O)[C@@H](N)Cc1c(C)cc(O)cc1C (stereo partly specified)
- Activity [1]: < 16%
- Ratio Ki [2]: 46
- Kb [3]: 0.0309 nM
- Ki [4]: 0.124 nM
- Ki [5]: 5.72 nM
- Activity [6]: < 1%
- Kb [7]: 102 nM
- IC50 [8]: > 10000 nM
- IC50 [9]: > 10000 nM

Structure (SMILES): Cc1cc(O)cc(C)c1C[C@H](N)C(=O)N1Cc2ccccc2CC1C(=O)NCCCCc1nc(O)c(CCNC(=O)C2Cc3ccccc3CN2C(=O)[C@@H](N)Cc2c(C)cc(O)cc2C)nc1C (stereo partly specified)
- Activity [1]: < 44%
- Ratio Ki [2]: 13
- Kb [3]: 0.0102 nM
- Ki [4]: 0.107 nM
- Ki [5]: 1.37 nM
- Activity [6]: < 1%
- IC50 [8]: > 10000 nM
- IC50 [9]: > 10000 nM

Structure (SMILES): Cc1cc(O)cc(C)c1C[C@H](N)C(=O)N1Cc2ccccc2CC1C(=O)NCc1nc(O)c(CNC(=O)C2Cc3ccccc3CN2C(=O)[C@@H](N)Cc2c(C)cc(O)cc2C)nc1C (stereo partly specified)
- Activity [1]: < 15%
- Ratio Ki [2]: 23
- Kb [3]: 0.00603 nM
- Ki [4]: 0.163 nM
- Ki [5]: 3.76 nM
- Activity [6]: < 1%
- IC50 [8]: > 10000 nM
- IC50 [9]: > 10000 nM

Structure (SMILES): Cc1cc(O)cc(C)c1C[C@H](N)C(=O)N1Cc2ccccc2CC1C(=O)NCCCCCCNC(=O)C1Cc2ccccc2CN1C(=O)[C@@H](N)Cc1c(C)cc(O)cc1C (stereo partly specified)
- Kb [3]: 0.024 nM
- Ki [4]: 0.129 nM
- Ki [5]: 1.79 nM
- Activity [6]: < 1%
- IC50 [8]: > 10000 nM

Structure (SMILES): Cc1cc(O)cc(C)c1C[C@H](N)C(=O)N1Cc2ccccc2CC1C(=O)NCCCc1nc(O)c(CCCNC(=O)C2Cc3ccccc3CN2C(=O)[C@@H](N)Cc2c(C)cc(O)cc2C)nc1C (stereo partly specified)
- Ratio Ki [2]: 20
- Kb [3]: 0.0275 nM
- Ki [4]: 0.155 nM
- Ki [5]: 3.08 nM
- Activity [6]: < 1%
- IC50 [8]: > 10000 nM
- IC50 [9]: 7020 nM

Structure (SMILES): Cc1cc(O)cc(C)c1C[C@H](N)C(=O)N1Cc2ccccc2CC1C(=O)NCCCCc1[nH]c(=O)c(CCCNC(=O)C2Cc3ccccc3CN2C(=O)[C@@H](N)Cc2c(C)cc(O)cc2C)nc1C (stereo partly specified)
- Kb [3]: 0.0251 nM
- Ki [4]: 0.16 nM
- Ki [5]: 1.56 nM
- IC50 [8]: > 10000 nM
- IC50 [9]: > 10000 nM
